Test results published in article PMC6627698, “Redesigning Arenicin-1, an Antimicrobial Peptide from the Marine Polychaeta Arenicola marina, by Strand Rearrangement or Branching, Substitution of Specific Residues, and Backbone Linearization or Cyclization” (Marine Drugs, 2019).
Residues, ends and D or L forms follow the SMILES beside them.

Assays:
MRSA ATCC 33591 = assay type: cell-based, Staphylococcus aureus; conditions: ATCC 33591, 18 h
Description: (§1) E. coli ML35p, Listeria monocytogenes EGD, methicillin-resistant Staphylococcus aureus (MRSA) ATCC 33591 were kindly provided by Prof. Robert Lehrer (University of California, Los Angeles, CA, USA); E. coli ATCC 25922, E. coli M15, Pseudomonas aeruginosa ATCC 27853, S. aureus ATCC 25923 were provided by Dr. Elena Ermolenko (Institute of Experimental Medicine, St-Petersburg, Russia); drug-resistant clinical isolates were provided by Prof. Gennadiy Afinogenov (Saint Petersburg State University, Russia); S. aureus 710A has been described previously. The following clinical isolates of bacteria were used: P.s aeruginosa resistant to aztreonam, ceftazidime, cefotaxime (obtained from the urine of a patient with cystitis), Acinetobacter baumannii resistant to meropenem (from an infected wound); Staphylococcus intermedius (from an infected wound caused by a dog bite) resistant to ciprofloxacin, cefuroxime, clindamycin, erythromycin, rifampin, gentamicin, benzylpenicillin, oxacillin.
(§2) This assay was applied to determine the MIC, according to the guidelines of the Clinical and Laboratory Standards Institute, using Mueller Hinton (MH) Broth. We prepared 2x stocks of peptides and serially diluted them in sterile PBS instead of Mueller Hinton Broth, so that the treatment of the bacteria with the peptides was carried out in a medium containing 50% of MH and 50% of PBS, as described. The overnight cultures of each strain were transferred to fresh MH media and further incubated to obtain a mid-logarithmic-growth-phase culture of bacteria. The absorbance of each bacterial suspension was measured at 620 nm, and bacteria were then diluted to approximately 2 × 10^5 CFU/mL. Then, 50 µL of the suspensions were mixed with 50 µL of the peptide dilutions in the wells of a microtiter plate (pre-treated for 1 h at 37 °C with 0.2% bovine serum albumin (BSA) in water, sterilized by filtration, to diminish the non-specific binding of the peptides to the plastic surfaces).

S. aureus ATCC 25923 = assay type: cell-based, Staphylococcus aureus; conditions: ATCC 25923, 18 h
Description: as §1, §2

S. aureus c.i. = assay type: cell-based, Staphylococcus aureus; conditions: 18 h
Description: as §1, §2

E. coli ATCC 25922 = assay type: cell-based, Escherichia coli; conditions: ATCC 25922, 18 h
Description: as §1, §2

E. coli M15 = assay type: cell-based, Escherichia coli; conditions: M15, 18 h
Description: as §1, §2

[1] = system: set of Gram-negative and Gram-positive bacteria, including drug-resistant clinical isolates; assay type: cell-based; conditions: 12 strains; median MICs used; MIC > 16 µM taken as 32 µM
Method: To obtain a global assessment of the effect on antimicrobial activity, the geometric mean of the MIC (G-MIC) was calculated, and from this, the overall improvement or impoverishment with respect to arenicin-1. In general, inverting the symmetry or decreasing the charge had detrimental effects.
The overall activity against a set of tested bacterial strains was determined by way of the commonly used geometric mean of measured MIC values. […] At the same time, the geometric mean can still discriminate antimicrobial agents showing minor variations in activity; in other words, it has a better “resolution” than the median MIC (MIC50). Some mathematical basics for choosing the geometric mean for antimicrobial activity comparison are further discussed in the Supplementary Chapter S3.

[2] = system: Listeria monocytogenes EGD; assay type: cell-based; conditions: 18 h
Description: as §1, §2

[3] = system: Staphylococcus aureus 710A; assay type: cell-based; conditions: 18 h
Description: as §1, §2

Escherichia coli ML35p = assay type: cell-based; conditions: broth microdilution, 50% Mueller Hinton broth / 50% PBS, 18 h at 37 °C, median of 3–5 experiments in triplicates
Description: as §1, §2

[4] = system: Pseudomonas aeruginosa ATCC 27853; assay type: cell-based; conditions: ATCC 27853, 18 h
Description: as §1, §2

[5] = system: Acinetobacter baumanii c.i.; assay type: cell-based, Acinetobacter baumannii; conditions: 18 h
Description: as §1, §2

[6] = system: human erythroleukemia K-562 cells; assay type: cell-based; conditions: 24 h
Method: The standard MTT ((3-(4,5-Dimethylthiazol-2-yl)-2,5-diphenyltetrazolium bromide) test was used for the examination of the cytotoxic activity of AMPs towards human erithroleukemia cells K-562. The cells were purchased from Biolot (Saint Petersburg, Russia) and were grown in RPMI 1640 medium (Biolot, Saint Petersburg, Russia) supplemented with glutamine and 10% FCS. Before the experiment, the culturing medium was replaced with serum-free RPMI 1640. Serial dilutions of the peptides in RPMI were plated in sterile 96-well microplates, and the target cells were dispensed to the microplates (10^5 cells/well in RPMI 1640). The plates were incubated for 24 h at 37 °C under 5% CO2. Cell-free media and cells incubated without peptides served as controls. Four hours before the incubation ended, MTT in PBS (5 mg/mL) was added to each well. After the incubation was stopped by adding isopropanol/ 0.04 M HCl, the optical density was measured at 540 nm, subtracting the background absorbance at 690 nm. Toxicity was determined by nonlinear regression analysis of the corresponding dose–response curves using the Sigma Plot 11 program to calculate the IC50 values (the concentration of the test substance that reduced the OD540 capacity by 50%).

[7] = system: Staphylococcus intermidius; assay type: cell-based, Staphylococcus intermedius; conditions: 18 h
Description: as §1, §2

P. aeruginosa c.i. = assay type: cell-based, Pseudomonas aeruginosa; conditions: 18 h
Description: as §1, §2

[8] = system: E. coli ML35p outer membrane; test: Outer membrane permeabilization assay (nitrocefin hydrolysis); assay type: cell-based, Escherichia coli; conditions: peptide at 2 × MIC, 10 mM sodium phosphate buffer, 100 mM NaCl, pH 7.4, 37 °C, 486 nm
Method: Figure 5 Permeabilizing effect of arenicin-1 variants on E. coli ML35p outer and cytoplasmic membranes.
The E. coli ML35p outer membrane permeability was assessed by monitoring hydrolysis of the chromogenic β-lactamase substrate nitrocefin (3-(2,4-dinitrostyryl)-(6R,7R)-7-(2-thienyl acetamido)ceph-3-em-4-carboxylic acid) (Calbiochem-Novabiochem, San-Diego, CA, USA) by detection of the hydrolysis product at 486 nm. Inner membrane permeability was monitored by measuring the hydrolysis of o-nitrophenyl-β-D-galactoside (ONPG, Sigma, La Jolla, CA, USA) at 420 nm. The E. coli ML35p strain expresses a plasmid-encoded periplasmic β-lactamase; it constitutively expresses cytoplasmic β-galactosidase and lacks lactose permease. E. coli ML35p was maintained on trypticase soy agar plates containing […] of ampicillin per mL. The bacteria used for antimicrobial testing or membrane permeability assays were picked from a single colony, incubated in 50 mL of sterile Trypticase soy broth for 16 h at 37 °C, washed three times with 10 mM sodium phosphate buffer (pH 7.4), adjusted to an optical density at 620 nm of 1 (2.5 × 10^8 CFU/mL), and kept on ice until use. The assays were performed in 96-well microtiter plates that were monitored every minute with a SpectraMax 250 Microplate Spectrophotometer (Molecular Devices, Sunnyvale, CA, USA) using the SOFTmax PRO software supplied by the manufacturer. […]

Structure (SMILES)	Minimal Inhibitory Concentrations (MIC) (MRSA ATCC 33591)	Minimal Inhibitory Concentrations (MIC) (S. aureus ATCC 25923)	Minimal Inhibitory Concentrations (MIC) (S. aureus c.i.)	Minimal Inhibitory Concentrations (MIC) (E. coli ATCC 25922)	Minimal Inhibitory Concentrations (MIC) (E. coli M15)	G-MIC (geometric mean of all determined MICs) [1]	Minimal Inhibitory Concentrations (MIC) [2]	Minimal Inhibitory Concentrations (MIC) [3]	Minimal Inhibitory Concentrations (MIC) (Escherichia coli ML35p)	Minimal Inhibitory Concentrations (MIC) [4]	Minimal Inhibitory Concentrations (MIC) [5]	IC50 [6]	Minimal Inhibitory Concentrations (MIC) [7]	Minimal Inhibitory Concentrations (MIC) (P. aeruginosa c.i.)	Capacity to permeabilize the outer membrane with respect to arenicin-1 [8]
CC(C)C[C@@H]1NC(=O)[C@H](C(C)C)NC(=O)CNC(=O)[C@H](CCCCN)NC(=O)[C@H](C(C)C)NC(=O)[C@H](CCCCN)NC(=O)[C@H](C(C)C)NC(=O)[C@H](Cc2ccc(O)cc2)NC(=O)[C@H](C)NC(=O)[C@H](Cc2ccc(O)cc2)NC(=O)[C@H](C(C)C)NC(=O)[C@@H](NC(=O)[C@H](Cc2c[nH]c3ccccc23)NC(=O)[C@@H](N)CCCCN)CSSC[C@@H](C(=O)N[C@@H](Cc2c[nH]c3ccccc23)C(=O)O)NC(=O)[C@H](CCCCN)NC(=O)[C@H](CCCCN)NC(=O)[C@H](Cc2ccc(O)cc2)NC(=O)[C@H](CCCCN)NC(=O)[C@H](C(C)C)NC1=O [AR-K] (HELM PEPTIDE1{K.W.C.V.Y.A.Y.V.K.V.K.G.V.L.V.K.Y.K.K.C.W}$PEPTIDE1,PEPTIDE1,3:R3-20:R3$$$V2.0; N-terminus assumed)	2 µM	2 µM	4 µM	2 µM	1 µM	1.9 µM	2 µM	2 µM	1 µM	1 to 2 µM	1 µM	7.7 µM	4 µM	2 to 4 µM	improved capacity to permeabilize the outer membrane
CC(C)C[C@@H]1NC(=O)[C@H](C(C)C)NC(=O)CNC(=O)[C@H](CCCNC(=N)N)NC(=O)[C@H](C(C)C)NC(=O)[C@H](CCCNC(=N)N)NC(=O)[C@H](C(C)C)NC(=O)[C@H](Cc2ccc(O)cc2)NC(=O)[C@H](C)NC(=O)[C@H](Cc2ccc(O)cc2)NC(=O)[C@H](C(C)C)NC(=O)[C@@H]2CSSC[C@H](NC(=O)[C@H](CCCNC(=N)N)NC(=O)[C@H](CCCNC(=N)N)NC(=O)[C@H](Cc3ccc(O)cc3)NC(=O)[C@H](CCCNC(=N)N)NC(=O)[C@H](C(C)C)NC1=O)C(=O)N[C@@H](Cc1c[nH]c3ccccc13)C(=O)N[C@@H](CCCNC(=N)N)C(=O)N[C@@H](Cc1c[nH]c3ccccc13)C(=O)N2 [ARcycl] (HELM PEPTIDE1{R.W.C.V.Y.A.Y.V.R.V.R.G.V.L.V.R.Y.R.R.C.W}$PEPTIDE1,PEPTIDE1,3:R3-20:R3|PEPTIDE1,PEPTIDE1,1:R1-21:R2$$$V2.0)	4 µM	2 µM	4 µM	2 µM	2 µM	–	2 µM	2 µM	–	1 µM	4 µM	16.2 µM	4 µM	2 µM	improved capacity to permeabilize the outer membrane
CC(C)[C@@H]1NC(=O)CNC(=O)[C@H](CCCNC(=N)N)NC(=O)[C@H](C(C)C)NC(=O)[C@H](CCCNC(=N)N)NC(=O)[C@H](C(C)C)NC(=O)[C@H](Cc2ccc(O)cc2)NC(=O)[C@H](C)NC(=O)[C@H](Cc2ccc(O)cc2)NC(=O)[C@H](C(C)C)NC(=O)[C@@H](NC(=O)[C@H](Cc2c[nH]c3ccccc23)NC(=O)[C@H](CCCNC(=N)N)NC(=O)[C@@H](N)CCCNC(=N)N)CSSC[C@@H](C(=O)N[C@@H](Cc2c[nH]c3ccccc23)C(=O)O)NC(=O)[C@H](C(C)C)NC(=O)[C@H](Cc2ccc(O)cc2)NC(=O)[C@H](C)NC(=O)[C@H](Cc2ccc(O)cc2)NC(=O)[C@H](C(C)C)NC(=O)[C@H](CCCNC(=N)N)NC1=O [ARs-N] (HELM PEPTIDE1{R.R.W.C.V.Y.A.Y.V.R.V.R.G.V.R.V.Y.A.Y.V.C.W}$PEPTIDE1,PEPTIDE1,4:R3-21:R3$$$V2.0; N-terminus assumed)	>16 µM	>16 µM	>16 µM	>16 µM	>16 µM	≥26.9 µM	8 µM	>16 µM	16 µM	>16 µM	>16 µM	18 µM	>16 µM	>16 µM	–
